Data reported in US11565003B2, “Mechanical opening of lipid bilayers by molecular nanomachines” (William Marsh Rice University, priority 2016, dated 2023).
Residues, ends and D or L forms follow the SMILES beside them. *: point of attachment. X1 = C[C@@H]1Cc2ccc3ccccc3c2/C1=C1\c2cc(C#CCCN=[N+]=[N-])ccc2Sc2ccc(C#CCCn3cc(C(=O)*)nn3)cc21

Key:
PC-3 cells [1] = assay: Two-photon near-infra red activation, PI dye entry, PC-3; assay type: cell-based, human; conditions: PC-3, 1 μM, PI 200 nM
Experimental: (§1) Two-photon microscopy studies of NIH 3T3 cells were executed on a Nikon E600 upright confocal microscope coupled to a tuneable (710-950 nm Coherent MaiTai) multiphoton source operating at (20%) 240 mW power using a 166 lps scan speed and 128×128 pixel frame resolution for MP-illumination. Images (512×512 pixel, 166 lps) were recorded using a 543 nm (1 mW HeNe) laser combined with a 560 nm long-pass filter to record PI (200 nM) fluorescence and follow the onset of induced necrosis.
(§2) Two photon live cell microscopy studies were also executed on a Nikon E600 upright confocal microscope coupled to a tuneable (710-950 nm Coherent MaiTai) multiphoton source operating at (19.8%) 240 mW power at 720 nm using 166 lines/sec scan speed and 128×128 pixel frame resolution for MP-illumination. An oil immersion Nikon IR objective (×60/1.4 NA) was used. Images (512×512 pixel, 166 l/s) were recorded using a 543 nm (1 mW HeNe) laser combined with a 570 nm long-pass filter to record PI dyes (200 nM). Fluorescence was measured as 2 frame averaged images in order to follow the onset of induced necrosis. Necrosis times have been assigned to detectable PI signals in the nucleolus.

NIH 3T3 cells [2] = assay: Two-photon near-infra red activation, PI dye entry, NIH 3T3; assay type: cell-based, mouse; conditions: NIH 3T3, 1 μM, PI 200 nM
Experimental: as §1, §2

PC-3 cells [3] = assay: UV-activated nanomechanical necrosis, live cell confocal microscopy, PC-3; assay type: cell-based, human; conditions: for selectivity for targeted PC-3 cells over non-targeted control cells (in words): NIH 3T3 and CHO as non-targeted controls; for Time of Full Necrosis / Time of Initial Necrosis / % acceleration for full necrosis: 355 nm UV; for % acceleration for full necrosis: versus UV upon blank cells
Experimental: Following the synthetic bilipid vesicle experiments, nanomechanical action upon live cells was studied using confocal microscopy aided by a super-resolution technique called Phase Modulation Nanoscopy. Applicants used two experimental methods. In the first method (Method A), the molecular motors were loaded into the cell media and the imaging was initiated within 5 minutes to 24 hours. In the second method, (Method B), the molecular motors were loaded into the cell media, incubated for 30 minutes to 24 hours, and then washed three times with fresh molecular motor-free media before imaging.
Next, Applicants used the smaller nanomachine, 3. Initial control experiments (blank) were performed without nanomachines being present. UV-induced (355 nm) PC-3 necrosis is not initiated until approximately scan 20 (corresponding to 300 second continuous scanning UV exposure, 400 nJ/voxel total dwell time), characterized by massive disruption and rupture of the mitochondrial network and subsequent well-pronounced auto-fluorescent signal detectable in the nucleoli and nucleus wall (FIG. 7A). This is observable by the nucleoli membrane permeabilization and DNA damage at the onset of necrosis. The UV-induced necrosis reaches final stages at approximately scan 40 (corresponding to 600 seconds) that is consistent with characteristic extracellular membrane rupture and homogenous cytosolic auto-fluorescence, indicating loss of cellular organelle boundaries.
(§3) Microscopy cells were seeded in untreated iBibi 100 μL live cell channels and allowed to grow to 40% to 60% confluence, at 37° C. in 5% CO2. At this stage, the medium was replaced and cells were treated with the studied nanomachines and co-stains as appropriate, with 0.1% DMSO (as detailed above) present in the final imaging medium. For live cell imaging, DMEM/F12 media (10% FBS) lacking phenol red was used from this point onwards. Following incubation, where Method B was used, the channels were washed with live cell imaging media and imaged using a purpose build incubator housing the microscope maintaining 37° C., 5% CO2 and 10% humidity.
(§4) All live cell imaging experiments used either NIH 3T3 mouse skin fibroblast cells, PC-3 cells, a grade 3 human prostate adenocarcinoma, or Chinese hamster ovary cells (CHO). These are all well-studied cell lines with discrete morphological compositions. Each molecular machine was used as a stock solution at 0.10 to 1.00 μM with total dimethyl sulfoxide (DMSO) concentrations not exceeding 0.1% in the final cell media in order to avoid unwanted cell membrane permeabilization, the DMSO being required for solubility of the organic nanomachines. All loading experiments are carried out in a light-suppressed manner and the possibility of induced or accelerated uptake due to interaction between the molecular motors and the applied co-stain has been eliminated using a series of individual and reversed loading experiments.
(§5) All experimental imaging parameters (i.e., laser beam size, confocal pinhole size, laser intensity, line scanning speed, scanning area (field of view, FOV), and line averaging sequences) were kept constant throughout the experiments. The accuracy and errors associated with the establishment of accelerated necrosis are determined based on one dual channel imaging sequence, which takes 15 seconds in total. This imaging sequence has been carefully established using untreated live cells.
Steady state fluorescence images were recorded using a PhMoNa enhanced Leica SP5 II LSCM equipped with a HCX PL APO 63×/1.40 NA LambdaBlue Oil immersion objective. As an initial control experiment to establish the UV-induced cell toxicity threshold, while mitigating voxel exposure and ensuring sufficient laser dwell time, an imaging sequence has been established to monitor cell morphological and physiological changes as a function of time. All experiments used cell-line-determined culture medium containing 0.1% DMSO. […]

NIH 3T3 cells [4] = assay: UV-activated nanomechanical necrosis, live cell confocal microscopy, NIH 3T3; assay type: cell-based, mouse; conditions: for Time of Full Necrosis / Time of Initial Necrosis / % acceleration for full necrosis: 355 nm UV; for % acceleration for full necrosis: versus UV upon blank cells
Experimental: (§6) Following the synthetic bilipid vesicle experiments, nanomechanical action upon live cells was studied using confocal microscopy aided by a super-resolution technique called Phase Modulation Nanoscopy. Applicants used two experimental methods. In the first method (Method A), the molecular motors were loaded into the cell media and the imaging was initiated within 5 minutes to 24 hours. In the second method, (Method B), the molecular motors were loaded into the cell media, incubated for 30 minutes to 24 hours, and then washed three times with fresh molecular motor-free media before imaging. […]
as §3, §4, §5
(§7) Steady state fluorescence images were recorded using a PhMoNa enhanced Leica SP5 II LSCM equipped with a HCX PL APO 63×/1.40 NA LambdaBlue Oil immersion objective. As an initial control experiment to establish the UV-induced cell toxicity threshold, while mitigating voxel exposure and ensuring sufficient laser dwell time, an imaging sequence has been established to monitor cell morphological and physiological changes as a function of time. All experiments used cell-line-determined culture medium containing 0.1% DMSO.
(§8) The applied 100 Hz detection sequence was based on a bidirectional dual-channel continuous scanning method where a minimalistic non-damaging visible laser light (458 nm, 0.2 mW) is used in conjunction with the above detailed UV exposure. This is set as a 2 line/scan accumulation parallel acquisition sequence that is recorded as a function of time. Studied channels correspond to transmission images and UV-induced mitochondrial auto-fluorescence detected at 460 to 550 nm. Applicants further confirmed that the effectiveness of monitoring the UV-activated nanomechanical action on live cells using a conventional CW mercury-arc excitation source equipped with an epi-fluorescence setup consisting of a Zeiss Axiovert 200M inverted microscope, as discussed in FIGS. 18A-C. […]

CHO cells = assay: UV-activated nanomechanical necrosis, live cell confocal microscopy, CHO; assay type: cell-based, Chinese hamster; conditions: 355 nm UV; for % acceleration for full necrosis: versus UV upon blank cells
Experimental: as §6, §3, §4, §5, §7, §8

PC-3 cells [5] = assay: 24 hours incubation without UV: proliferation and apoptosis (Annexin V, Image Cytometry); assay type: cell-based, human
Experimental: When PC-3 cells are loaded at 0.5 or 1.0 μM with 9 or 10, washed three times (Method B) or unwashed (Method A) after 24 hours of incubation, the cells visually appear without major signs of toxicity. However, the cells which had been incubated with 9 or 10 over 24 hours were not dividing as prolifically. The cultures appear to be populated ˜25% less in the presence of 9 and 20% of the cells in 10 compared to control untreated cells (FIGS. 12A-E).
In order to further investigate this point, these cells were collected via gentle centrifugation and re-suspended in fresh PBS and analyzed by Image Cytometry. Using Annexin V, these cells were all confirmed to show signs of apoptosis at 93±5%. This is in contrast to the remaining coverslip surface-bound cells that appear healthy.
These latter types of non-apoptotic cells show identical percentage of necrosis acceleration upon subsequent UV-activation of the cell-surface bound nanomachines compared to their shorter incubation time analogues. Thus, it appears that, upon 24 hour incubation, a noticeable amount of cells have nanomachines 9 and 10 either bound to vital cell membrane channels or transport proteins or they are internalized, subsequently shutting down some natural homeostatic mechanisms that leads to programmed cell death (FIGS. 12A-E). Furthermore, this is not the case with shorter incubation times regardless of whether Method A or B is used.

[6] = PC-3, Method B (washed three times)
[7] = NIH 3T3, Method B (washed three times)

SMILES	selectivity for targeted PC-3 cells over non-targeted control cells (in words) (PC-3 cells [3])	Time of Full Necrosis (PC-3 cells [3]; PC-3, Method A (no washing)) [s]	Time of Initial Necrosis (PC-3 cells [3]; PC-3, Method A (no washing)) [s]	% acceleration for full necrosis (PC-3 cells [3]; PC-3, Method A) [%]	Time of Full Necrosis (PC-3 cells [3]; [6]) [s]	Time of Initial Necrosis (PC-3 cells [3]; [6]) [s]	% acceleration for full necrosis (PC-3 cells [3]; PC-3, Method B) [%]	Time of Full Necrosis (NIH 3T3 cells [4]; NIH 3T3, Method A (no washing)) [s]	Time of Initial Necrosis (NIH 3T3 cells [4]; NIH 3T3, Method A (no washing)) [s]	% acceleration for full necrosis (NIH 3T3 cells [4]; NIH 3T3, Method A) [%]	Time of Full Necrosis (NIH 3T3 cells [4]; [7]) [s]	Time of Initial Necrosis (NIH 3T3 cells [4]; [7]) [s]	% acceleration for full necrosis (NIH 3T3 cells [4]; NIH 3T3, Method B) [%]	other results
C[C@H](NC(=O)[C@H](CCC(=O)O)NC(=O)CNC(=O)[C@H](CC(=O)O)NC(=O)CCc1cn(CCC#Cc2ccc3c(c2)/C(=C2/c4c(ccc5ccccc45)C[C@H]2C)c2cc(C#CCCN=[N+]=[N-])ccc2S3)nn1)C(N)=O [Compound 8]	No selectivity was observed	360	150	40	360	150	40	375	150	37.5	360	150	40	PI dye entry upon two-photon near-infra red illumination (in words) (PC-3 cells [1]): resulting in Propidium Iodide (PI) dyes entering; PI dye entry upon two-photon near-infra red illumination (in words) (NIH 3T3 cells [2]): resulting in Propidium Iodide (PI) dyes entering
CC(C)[C@H](NC(=O)[C@H](CCCNC(=N)N)NC(=O)[C@@H](NC(=O)[C@H](CC(N)=O)NC(=O)[C@H](CO)NC(=O)c1cn(CCC#Cc2ccc3c(c2)/C(=C2/c4c(ccc5ccccc45)C[C@H]2C)c2cc(C#CCCN=[N+]=[N-])ccc2S3)nn1)[C@@H](C)O)C(=O)N[C@@H](C)C(=O)N1CCC[C@H]1C(=O)O [Compound 10] (X1-SNTRVAP-OH)	selectively target the PC-3 cell line over CHO cells	420	195	30	435	210	27.5	540	270	10	600	300	0	accelerated necrosis upon UV-activation after washing and further 24 hours in rotor free media (PC-3 cells [3]; PC-3, incubated 30 minutes to 4 hours, washed three times, 24 hours rotor free media): 25%; Time of Full Necrosis (CHO cells; Method A (no washing)): 540 s; Time of Initial Necrosis (CHO cells; Method A (no washing)): 270 s; % acceleration for full necrosis (CHO cells; Method A): 10%; Time of Full Necrosis (CHO cells; Method B (washed three times)): 600 s; Time of Initial Necrosis (CHO cells; Method B (washed three times)): 300 s; % acceleration for full necrosis (CHO cells; Method B): 0%; UV-accelerated nanomechanical necrosis after 24 hours incubation (in words) (NIH 3T3 cells [4]; NIH 3T3, incubated 24 hours): less than half the efficiency compared to identical experiments using the targeted PC-3 cells; cultures populated less compared to control untreated cells (PC-3 cells [5]; PC-3, 0.5 or 1.0 μM, 24 hours of incubation, no UV): 20%; mobilized cells showing signs of apoptosis (Annexin V) (PC-3 cells [5]; PC-3, 24 hours incubation, cells collected from culture media): 93±5%
